In paper PMC3914206:

Legend:
Format in all cases: binding
Conditions in all cases: Compound Concentration 10 µM
panel of 442 kinases [1] = target: T1, panel of 442 kinases (Homo sapiens, UniProt P20794)
T1 construct: purchased KINOMEscan
T1 sequence (P20794 1-623): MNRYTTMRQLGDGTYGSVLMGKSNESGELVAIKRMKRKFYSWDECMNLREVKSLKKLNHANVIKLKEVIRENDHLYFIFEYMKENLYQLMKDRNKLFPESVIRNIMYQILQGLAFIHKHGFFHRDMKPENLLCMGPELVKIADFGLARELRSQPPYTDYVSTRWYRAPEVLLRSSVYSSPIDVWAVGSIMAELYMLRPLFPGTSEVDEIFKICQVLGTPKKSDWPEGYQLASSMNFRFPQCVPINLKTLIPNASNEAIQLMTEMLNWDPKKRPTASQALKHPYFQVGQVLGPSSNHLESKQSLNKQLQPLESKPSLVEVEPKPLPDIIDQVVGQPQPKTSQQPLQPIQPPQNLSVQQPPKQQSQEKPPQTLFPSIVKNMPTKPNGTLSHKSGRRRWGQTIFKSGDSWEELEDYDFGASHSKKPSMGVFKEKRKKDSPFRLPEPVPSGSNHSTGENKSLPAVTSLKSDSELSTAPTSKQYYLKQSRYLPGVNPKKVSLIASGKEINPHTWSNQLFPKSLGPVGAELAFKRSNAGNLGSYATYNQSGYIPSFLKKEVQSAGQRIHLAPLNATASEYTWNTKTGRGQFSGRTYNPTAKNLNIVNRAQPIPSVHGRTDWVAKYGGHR
Excerpt: (§1) We assessed the selectivity of members of this scaffold using the KINOMEscan methodology across a near comprehensive panel of 442 kinases [[18,27]].

panel of 442 kinases [2] = target: T2, panel of 442 kinases (Homo sapiens, UniProt P04049)
T2 construct: purchased KINOMEscan
T2 sequence (P04049 whole entry): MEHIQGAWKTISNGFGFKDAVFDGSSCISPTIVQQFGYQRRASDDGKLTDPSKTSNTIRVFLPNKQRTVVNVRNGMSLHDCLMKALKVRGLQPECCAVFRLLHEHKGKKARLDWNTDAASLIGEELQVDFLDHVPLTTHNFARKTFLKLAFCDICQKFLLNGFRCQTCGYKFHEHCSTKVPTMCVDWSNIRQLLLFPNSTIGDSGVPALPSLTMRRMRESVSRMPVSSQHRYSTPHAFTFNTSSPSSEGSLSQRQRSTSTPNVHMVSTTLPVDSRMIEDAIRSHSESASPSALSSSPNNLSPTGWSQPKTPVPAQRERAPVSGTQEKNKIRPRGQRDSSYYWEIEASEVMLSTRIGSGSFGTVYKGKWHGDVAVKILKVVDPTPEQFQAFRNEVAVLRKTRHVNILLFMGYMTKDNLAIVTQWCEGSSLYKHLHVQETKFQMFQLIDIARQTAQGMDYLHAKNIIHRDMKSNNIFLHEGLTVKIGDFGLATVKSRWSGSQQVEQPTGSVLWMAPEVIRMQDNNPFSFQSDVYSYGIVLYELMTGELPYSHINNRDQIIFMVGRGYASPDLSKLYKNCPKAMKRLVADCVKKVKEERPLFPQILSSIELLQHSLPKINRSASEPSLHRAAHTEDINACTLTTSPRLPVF
Excerpt: as §1

panel of 442 kinases [3] = target: T3, panel of 442 kinases (Homo sapiens, UniProt O43353)
T3 construct: purchased KINOMEscan
T3 sequence (O43353 whole entry): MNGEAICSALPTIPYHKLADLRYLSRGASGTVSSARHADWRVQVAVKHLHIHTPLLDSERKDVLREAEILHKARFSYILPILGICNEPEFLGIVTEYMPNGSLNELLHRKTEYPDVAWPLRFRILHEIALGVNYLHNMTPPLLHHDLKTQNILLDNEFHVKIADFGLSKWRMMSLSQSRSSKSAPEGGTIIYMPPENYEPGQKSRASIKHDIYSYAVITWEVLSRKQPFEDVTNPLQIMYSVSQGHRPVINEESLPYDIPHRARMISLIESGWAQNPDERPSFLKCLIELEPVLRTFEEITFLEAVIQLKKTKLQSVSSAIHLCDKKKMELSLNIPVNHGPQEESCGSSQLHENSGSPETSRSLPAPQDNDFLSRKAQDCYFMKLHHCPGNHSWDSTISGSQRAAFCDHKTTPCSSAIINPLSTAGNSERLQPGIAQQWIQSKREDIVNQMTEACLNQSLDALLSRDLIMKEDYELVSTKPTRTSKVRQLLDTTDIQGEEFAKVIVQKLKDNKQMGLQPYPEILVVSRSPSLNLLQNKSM
Excerpt: as §1

| SMILES | KINOMEscan: MAK (panel of 442 kinases [1]) | KINOMEscan: RAF1 (panel of 442 kinases [2]) | KINOMEscan: RIPK2 (panel of 442 kinases [3]) |
| --- | --- | --- | --- |
| COc1cc(C(=O)N2CCC(N3CCN(C)CC3)CC2)ccc1Nc1ncc2c(n1)N(C)c1ccccc1C(=O)N2C [15 (LRRK2-IN-1)] | 72 | 100 | 100 |
| COc1cc(C(=O)N2CCC(N3CCN(C)CC3)CC2)ccc1Nc1ncc2c(n1)N1CCc3cccc(c31)C(=O)N2C [Compound 24] | 100 |  | 95 |
| COc1cc(C(=O)N2CCC(N3CCN(C)CC3)CC2)ccc1Nc1ncc2c(n1)N(C1CCCC1)c1ccccc1C(=O)N2C [Compound 25, 11-cyclopentyl-2-((2-methoxy-4-(4-(4-methylpiperazin-1-yl)piperidine-1-carbonyl)phenyl)amino)-5-methyl-5H-benzo[e]pyrimido[5,4-b][1,4]diazepin-6(11H)-one] | 100 | 100 | 87 |
| CCOc1cc(C(=O)N2CCC(N3CCN(C)CC3)CC2)ccc1Nc1ncc2c(n1)N(C1CCCC1)c1ccccc1C(=O)N2C [Compound 26] | 100 | 100 | 100 |
